Data from patent US20260137662A1, “CD11B AGONISTS FOR TREATMENT OF AUTOIMMUNE DISEASE” (Rush University Medical Center, priority 2022, published 2026).

System: NFkB pathway
Assay: Gene expression in RAW 264.7 myeloid cells with NFkB inhibitor
Format: cell-based, murine
Conditions: presence of NFkB inhibitor; LPS-treated cells, 8 hours
Protocol: FIG. 6A illustrates gene expression of PLAUR in myeloid cells treated with NFkB inhibitor BMS 345541 and then subsequently treated for 8 hours with LA 1(20 uM), LPS (12.5, 25, 50, 100, or 250 ng/ml), or LPS and LA1 co-treatment (L+L).
FIG. 6B illustrates gene expression of NLRP3 in myeloid cells treated with NFkB inhibitor BMS 345541 and then subsequently treated for 8 hours with LA 1(20 uM), LPS (12.5, 25, 50, 100, or 250 ng/ml), or LPS and LA1 co-treatment (L+L).
FIG. 6C illustrates gene expression of and IL-6 in myeloid cells treated with NFkB inhibitor BMS 345541 and then subsequently treated for 8 hours with LA 1(20 uM), LPS (12.5, 25, 50, 100, or 250 ng/ml), or LPS and LA1 co-treatment (L+L).
In order to determine potential molecular mechanisms resulting in uPAR expression, the association between uPAR/suPAR and other inflammatory cytokines and the NFkB pathway were investigated. uPAR expression levels in RAW 264.7 myeloid cells were evaluated in the absence or presence of a known NFkB inhibitor, BMS 345541.

## Cc1ccc2nc(NCCN)c3ncc(C)n3c2c1 [BMS 345541]
  expression levels of IL-6: reduced
  expression levels of NLRP3: reduced
  relative gene expression of PLAUR (uPAR): reduced relative gene expression
